Reference: ChEMBL document CHEMBL1142021, “Aglycon specificity profiling of alpha-glucosidases using synthetic probes” (Bioorg Med Chem Lett, 2005)
Values belong to the compound of their own block, whether it stands above or below them.

How the values were obtained:
Alpha-glucosidase = target: T1, Alpha-glucosidase (Apis mellifera, UniProt Q17058); experiment: Inhibition of family 13 alpha-glucosidase isoform I from honey bee at 1 umol/mL
T1 sequence (Q17058 whole entry): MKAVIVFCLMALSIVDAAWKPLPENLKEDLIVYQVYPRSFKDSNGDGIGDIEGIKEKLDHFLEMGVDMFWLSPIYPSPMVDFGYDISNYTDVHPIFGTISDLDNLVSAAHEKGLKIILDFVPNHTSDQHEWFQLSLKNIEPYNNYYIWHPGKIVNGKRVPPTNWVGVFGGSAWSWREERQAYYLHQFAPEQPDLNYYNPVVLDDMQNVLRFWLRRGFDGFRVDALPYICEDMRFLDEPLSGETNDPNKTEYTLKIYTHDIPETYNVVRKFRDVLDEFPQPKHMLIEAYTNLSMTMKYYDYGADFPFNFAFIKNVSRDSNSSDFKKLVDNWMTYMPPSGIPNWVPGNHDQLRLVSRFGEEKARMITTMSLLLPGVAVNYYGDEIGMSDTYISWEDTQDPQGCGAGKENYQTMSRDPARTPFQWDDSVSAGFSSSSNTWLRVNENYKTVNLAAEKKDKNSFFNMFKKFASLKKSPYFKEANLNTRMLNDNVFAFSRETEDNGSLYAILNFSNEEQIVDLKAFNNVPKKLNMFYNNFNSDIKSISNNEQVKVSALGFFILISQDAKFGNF

[1] = Inhibition of beta-Mannosidase; conditions: Homo sapiens; concentration not given here
[2] = target: T2, Cytosolic beta-glucosidase (Homo sapiens) (UniProt Q9H227); experiment: Inhibition of beta-Glucosidase at 1 umol/mL
T2 sequence (whole entry): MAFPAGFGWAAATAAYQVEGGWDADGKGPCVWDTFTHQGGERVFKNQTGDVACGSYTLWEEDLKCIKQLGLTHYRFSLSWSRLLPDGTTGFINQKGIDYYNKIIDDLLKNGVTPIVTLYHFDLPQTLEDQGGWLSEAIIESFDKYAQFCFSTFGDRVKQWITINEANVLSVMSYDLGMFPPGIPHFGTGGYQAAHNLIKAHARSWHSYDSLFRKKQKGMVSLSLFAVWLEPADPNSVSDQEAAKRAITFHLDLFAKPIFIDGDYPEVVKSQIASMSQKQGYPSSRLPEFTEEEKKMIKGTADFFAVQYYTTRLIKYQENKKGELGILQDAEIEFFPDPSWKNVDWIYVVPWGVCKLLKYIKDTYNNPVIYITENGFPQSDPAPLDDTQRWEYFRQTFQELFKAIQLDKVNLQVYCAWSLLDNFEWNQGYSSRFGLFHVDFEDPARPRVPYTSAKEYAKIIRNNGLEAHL

[3] = target: T3, Lysosomal alpha-mannosidase (Homo sapiens) (UniProt O00754); experiment: Inhibition of alpha-Mannosidase; conditions: concentration not given here
T3 sequence (whole entry): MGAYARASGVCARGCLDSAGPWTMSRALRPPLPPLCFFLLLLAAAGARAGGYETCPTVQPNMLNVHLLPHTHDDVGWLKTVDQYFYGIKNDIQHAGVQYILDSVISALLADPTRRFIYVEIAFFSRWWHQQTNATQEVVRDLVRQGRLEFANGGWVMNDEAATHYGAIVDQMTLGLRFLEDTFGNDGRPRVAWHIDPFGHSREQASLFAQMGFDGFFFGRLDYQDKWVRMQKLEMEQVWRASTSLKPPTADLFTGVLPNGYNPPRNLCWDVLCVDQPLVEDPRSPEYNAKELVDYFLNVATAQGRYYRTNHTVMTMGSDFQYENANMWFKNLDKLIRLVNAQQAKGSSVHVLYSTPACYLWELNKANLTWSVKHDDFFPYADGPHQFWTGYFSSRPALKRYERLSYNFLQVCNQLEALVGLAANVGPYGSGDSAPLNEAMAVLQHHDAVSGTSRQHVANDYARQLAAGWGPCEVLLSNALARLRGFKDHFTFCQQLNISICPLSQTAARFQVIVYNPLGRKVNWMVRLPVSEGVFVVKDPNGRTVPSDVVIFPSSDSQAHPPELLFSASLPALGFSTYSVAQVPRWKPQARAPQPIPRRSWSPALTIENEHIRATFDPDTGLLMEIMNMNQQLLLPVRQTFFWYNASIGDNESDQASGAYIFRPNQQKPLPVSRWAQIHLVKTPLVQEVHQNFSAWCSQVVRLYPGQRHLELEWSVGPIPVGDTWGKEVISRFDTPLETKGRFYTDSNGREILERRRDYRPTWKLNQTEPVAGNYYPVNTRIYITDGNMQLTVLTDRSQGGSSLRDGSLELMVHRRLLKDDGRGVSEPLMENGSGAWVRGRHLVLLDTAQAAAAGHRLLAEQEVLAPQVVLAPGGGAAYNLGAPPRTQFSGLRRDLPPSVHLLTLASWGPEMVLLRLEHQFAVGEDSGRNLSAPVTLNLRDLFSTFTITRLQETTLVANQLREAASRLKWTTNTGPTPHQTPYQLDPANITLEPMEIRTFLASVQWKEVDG

[4] = Inhibitory concentration of Bacillus stearothermophilus glucosidase (of family 13 alpha-glucosidase) at 1 umol/mL; design: species or system Geobacillus stearothermophilus

- IC50 (Alpha-glucosidase): 851 µM
SMILES: O=C(CO)NCC1OC(CO)C(O)C(O)C1O (stereo not given)

- inhibition [1]: < 1%
- inhibition [2]: < 1%
SMILES: O=C(NCC1OC(CO)C(O)C(O)C1O)c1ccccc1 (stereo not given)

- inhibition [3]: < 1%
SMILES: O=C(CCCO)NCC1OC(CO)C(O)C(O)C1O (stereo not given)

- IC50 [4]: 415 µM
SMILES: O=C(CCCCO)NCC1OC(CO)C(O)C(O)C1O (stereo not given)
